Results taken from patent US20230098202A1 (priority 2020, published 2023).
Where two headings read alike, the source gives them in different places.

Tests used:
Puccinia sorghi [1] = format: cell-based; settings: 25 ppm
Pythium aphanidermatum = format: cell-based
Rhizoctonia solani = format: cell-based
Pseudomonas syringae = format: cell-based
Phytophthora infestans [2] = format: cell-based; settings: Phytophthora infestans on tomato leaf discs; activity grade x repeats/12 x100
Puccinia sorghi [3] = experiment: In planta validation: Puccinia sorghi infection of corn seedlings; format: in vivo, Puccinia sorghi on corn; settings: controlled growth conditions, growth rooms, spraying
Experimental: • 1) Use: 120×80×80 mm pots, standard garden soil with fertilizer and corn seeds of a rust sensitive variety. • 2) Put pots in a tray and fill the pots with the soil to the top. • 3) Make a small grove for the seeds. • 4) Plant about 10 seeds of corn in each pot. • 5) Cover the seeds with additional soil. • 6) Add water into the tray—about 100 ml for each pot (fill the tray 3 times). • 7) Grow the corn for 8 days in growth room at 22° C. (until the second leaf is emerged). B. Preparation of Spore Suspension [from Corn Leaves] for Inoculation • 1) Insert 20 infected corn leaves with spores into a sterile 50-ml tube. • 2) Add 50 ml of cold 0.05% Tween® 20 solution. • 3) Insert the tube into a sealed, ice cold plastic box. • 4) Shake the box using a shaker for 15 min at 3000 RPM. • 5) Transfer the suspension (without the leaves) into a clean sterile 50-ml tube. • 6) Filter the spore suspension through 16 layers of gauze into another sterile 50-ml tube. • 7) Keep the tube with the spore suspension on ice. • 8) Wash and concentrate the spores on a 5-micron membrane filter. Wash 4 times with ice-cold sterile water and collect the spores in 0.05% Tween® 20 solution. • 9) For inoculation, dilute the spore suspension to get spore concentration of 8000 spores/ml using cold 0.05% Tween® 20 solution. […]

Puccinia triticina = experiment: In planta validation in wheat infected with leaf rust, growth chamber; format: in vivo, Puccinia triticina on wheat; settings: sprayed a day before inoculation
Phytophthora infestans [4] = settings: n = 10

COc1cc2c(cc1O)[C@@H](c1ccc(O)c(O)c1)[C@H](C)[C@H](C)C2 [Compound 2, 4-((1R,2R,3R)-7-hydroxy-6-methoxy-2,3-dimethyl-1,2,3,4-tetrahydronaphthalen-1-yl)benzene-1,2-diol]
Relative Activity value (%) (Puccinia sorghi [1]): 50% | Relative Activity value (%) (Pythium aphanidermatum): 20% | Relative Activity value (%) (Rhizoctonia solani): 14% | Relative Activity value (%) (Pseudomonas syringae): 14%

C[C@H]1[C@H](c2ccc(O)c(O)c2)c2cc(O)c(O)cc2C[C@H]1C [Compound 1, (5R,6R,7R)-5-(3,4-dihydroxyphenyl)-6,7-dimethyl-5,6,7,8-tetrahydronaphthalene-2,3-diol]
Relative Activity value (%) (Puccinia sorghi [1]): 50% | Relative Activity value (%) (Pythium aphanidermatum): 100% | Relative Activity value (%) (Rhizoctonia solani): 50% | Relative Activity value (%) (Phytophthora infestans [2]): 25% | Relative Activity value (%) (Pseudomonas syringae): 14% | efficacy in preventing and controlling Puccinia sorghi in corn plants (in words) (Puccinia sorghi [3]): very good efficacy | average efficacy in preventing and controlling Puccinia triticina (Puccinia triticina; 200 ppm): 95.17% | average efficacy in preventing and controlling Puccinia triticina (Puccinia triticina; 400 ppm): 97.06%

CN[C@H]1CCC(c2ccc(Cl)c(Cl)c2)c2ccccc21.Cl (stereo in doubt) [Compound 3, (1S,4R)-4-(3,4-dichlorophenyl)-N-methyl-1,2,3,4-tetrahydronaphthalen-1-aminium chloride]
Mean leaf surface area (0-3) covered by Phytophthora (Phytophthora infestans [4]; Exp. 487, 200 ppm in 0.1% base (pH = 6) + Silwet 0.005%, not treated 2.6): 0.7 | Mean leaf surface area (0-3) covered by Phytophthora (Phytophthora infestans [4]; Exp. 487, 200 ppm in DMSO 6% + Silwet 0.005%, 0=clear, 3=high coverage, not treated 2.6): 0.1 | Mean leaf surface area (0-3) covered by Phytophthora (Phytophthora infestans [4]; Exp. 492, 200 ppm in 0.1% base (pH = 6) + Silwet 0.005%, not treated 3): 0.3 | Mean leaf surface area (0-3) covered by Phytophthora (Phytophthora infestans [4]; Exp. 492, 200 ppm in DMSO 6% + Silwet 0.005%, not treated 3): 0.4 | Mean leaf surface area (0-3) covered by Phytophthora (Phytophthora infestans [4]; Exp. 500, 200 ppm in 0.1% base (pH = 6) without Silwet, not treated 3): 0.8
